pIC50: −log10 of the molar value. Bridge positions count the residues as written; N and C are the ends. Square brackets hold non-standard residues; d marks the D form. Peptide text beside a SMILES is read from it. * marks the point of attachment. Bip = N[C@@H](Cc1ccc(-c2ccccc2)cc1)C(=O)O; Cha = N[C@@H](CC1CCCCC1)C(=O)O; dDab = NCC[C@@H](N)C(=O)O; Carboxymethyl = O=C(O)C*; Orn = NCCC[C@H](N)C(=O)O; Aun = NCCCCCCCCCCC(=O)O; Dap = NC[C@H](N)C(=O)O; AEEA = NCCOCCOCC(=O)O
biological target: T1, PD-1/PD-L1 interaction (PE-labeled human PD-L1-Ig binding to Jurkat cell line over-expressing human PD-1) (Homo sapiens, UniProt Q15116); assay: Jurkat-PD-1 Cell Binding High-Content Screening Assay (CBA); format: cell-based; settings: Jurkat cell line over-expressing human PD-1; PE-labeled PD-L1-Ig 20 nM final; read-out: Jurkat hPD1-PDL1 IC50
T1 construct: expressed in transfected cells; host or cells: Jurkat
T1 sequence (Q15116 25-288): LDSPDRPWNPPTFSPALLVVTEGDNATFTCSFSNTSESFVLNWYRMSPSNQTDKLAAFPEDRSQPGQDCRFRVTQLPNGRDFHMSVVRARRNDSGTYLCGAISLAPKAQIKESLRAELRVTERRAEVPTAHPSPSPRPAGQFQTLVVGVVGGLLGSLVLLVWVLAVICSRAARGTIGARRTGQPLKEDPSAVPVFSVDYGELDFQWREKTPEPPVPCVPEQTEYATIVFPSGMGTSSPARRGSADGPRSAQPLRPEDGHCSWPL
How it was run: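 Binding of fluorescent PD-L1-Ig (20 nM final) to Jurkat-PD-1 cells was measured by automated imaging after 1 h, following a 2 h compound pre-treatment at 37° C.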

First: CC(C)C[C@H]1NC(=O)[C@H](CCCN)NC(=O)[C@H](C(C)C)NC(=O)[C@H](Cc2ccc(-c3ccccc3)cc2)NC(=O)[C@H](C(C)C)NC(=O)[C@H](Cc2c[nH]c3ccccc23)NC(=O)[C@H](CC(=O)O)NC(=O)[C@H](Cc2ccc(OCC(=O)O)cc2)NC(=O)[C@H](CN)NC(=O)CSC[C@@H](C(=O)NCCOCCOCC(=O)N[C@H](CCN)C(=O)NCCCCCCCCCCC(=O)O)NC(=O)[C@H]([C@@H](C)O)NC(=O)[C@H](C(C)C)NC(=O)[C@H](CC2CCCCC2)NC(=O)[C@H](Cc2cnc[nH]2)NC1=O [Compound 1129] ({CH2CO}-[Dap]Y(Carboxymethyl)DWV[Bip]V[Orn][dL]H[Cha]VTC[AEEA][dDab][Aun]-OH; thioether N-14)
Second: CC(C)C[C@H]1NC(=O)[C@H](CCCN)NC(=O)[C@H](C(C)C)NC(=O)[C@H](Cc2ccc(-c3ccccc3)cc2)NC(=O)[C@H](C(C)C)NC(=O)[C@H](Cc2c[nH]c3ccccc23)NC(=O)[C@H](CC(=O)O)NC(=O)[C@H](Cc2ccc(OCC(=O)O)cc2)NC(=O)[C@H](CN)NC(=O)CSC[C@@H](C(=O)NCCOCCOCC(=O)N[C@H](CCCCN)C(=O)NCCCCCCCCCCC(=O)O)NC(=O)[C@H]([C@@H](C)O)NC(=O)[C@H](C(C)C)NC(=O)[C@H](CC2CCCCC2)NC(=O)[C@H](Cc2cnc[nH]2)NC1=O [Compound 1131] ({CH2CO}-[Dap]Y(Carboxymethyl)DWV[Bip]V[Orn][dL]H[Cha]VTC[AEEA][dK][Aun]-OH; thioether N-14)
The pIC50 of the first is 0.41 log units lower: 7.43 for the first, 7.84 for the second.

`CC(C)C[C@H]1NC(=O)[C@H](CCCN)NC(=O)[C@H](C(C)C)NC(=O)[C@H](Cc2ccc(-c3ccccc3)cc2)NC(=O)[C@H](C(C)C)NC(=O)[C@H](Cc2c[nH]c3ccccc23)NC(=O)[C@H](CC(=O)O)NC(=O)[C@H](Cc2ccc(OCC(=O)O)cc2)NC(=O)[C@H](CN)NC(=O)CSC[C@@H](C(=O)NCCOCCOCC(=O)N[C@H](CC(=O)O)C(=O)NCCCCCCCCCCC(=O)O)NC(=O)[C@H]([C@@H](C)O)NC(=O)[C@H](C(C)C)NC(=O)[C@H](CC2CCCCC2)NC(=O)[C@H](Cc2cnc[nH]2)NC1=O` [Compound 1132] ({CH2CO}-[Dap]Y(Carboxymethyl)DWV[Bip]V[Orn][dL]H[Cha]VTC[AEEA][dD][Aun]-OH; thioether N-14) and `CC(C)C[C@H]1NC(=O)[C@H](CCCN)NC(=O)[C@H](C(C)C)NC(=O)[C@H](Cc2ccc(-c3ccccc3)cc2)NC(=O)[C@H](C(C)C)NC(=O)[C@H](Cc2c[nH]c3ccccc23)NC(=O)[C@H](CC(=O)O)NC(=O)[C@H](Cc2ccc(OCC(=O)O)cc2)NC(=O)[C@H](CN)NC(=O)CSC[C@@H](C(=O)NCCOCCOCC(=O)N[C@H](CCC(=O)O)C(=O)NCCCCCCCCCCC(=O)O)NC(=O)[C@H]([C@@H](C)O)NC(=O)[C@H](C(C)C)NC(=O)[C@H](CC2CCCCC2)NC(=O)[C@H](Cc2cnc[nH]2)NC1=O` [Compound 1133] ({CH2CO}-[Dap]Y(Carboxymethyl)DWV[Bip]V[Orn][dL]H[Cha]VTC[AEEA][dE][Aun]-OH; thioether N-14) are within 0.2 log units of each other in pIC50: 7.44 for the first, 7.52 for the second.

`CC(C)C[C@H]1NC(=O)[C@H](CCCN)NC(=O)[C@H](C(C)C)NC(=O)[C@H](Cc2ccc(-c3ccccc3)cc2)NC(=O)[C@H](C(C)C)NC(=O)[C@H](Cc2c[nH]c3ccccc23)NC(=O)[C@H](CC(=O)O)NC(=O)[C@H](Cc2ccc(OCC(=O)O)cc2)NC(=O)[C@H](CN)NC(=O)CSC[C@@H](C(=O)NCCOCCOCC(=O)N[C@H](CO)C(=O)NCCCCCCCCCCC(=O)O)NC(=O)[C@H]([C@@H](C)O)NC(=O)[C@H](C(C)C)NC(=O)[C@H](CC2CCCCC2)NC(=O)[C@H](Cc2cnc[nH]2)NC1=O` [Compound 1134] ({CH2CO}-[Dap]Y(Carboxymethyl)DWV[Bip]V[Orn][dL]H[Cha]VTC[AEEA][dS][Aun]-OH; thioether N-14) was tested, and the pIC50 was 7.54.

Reference: US20260022142A1, “MACROCYCLIC IMMUNOMODULATORS” (Bristol-Myers Squibb Company, priority 2022, published 2026)
